Results published in patent US10781224B2, “Bis(oxymethyl)phosphinic acid and biogenic metal salts thereof as regulators of plant growth and development” (priority 2016, dated 2020).

Columns and labels:
Format in all cases: in vivo
[1] = tested on: spring wheat seeds: contamination by mold, alternaria, bacteriosis; experiment: Phytopathological properties (seed contamination) of treated spring wheat seeds
Experimental: (§1) Experimental versions—soaking seeds in BHMPA solutions and solutions of BHMPA Ca, Mg, Na, Co, Mn, Cu, and Zn salts at 1·10^−6-1·10^−12% concentrations (doses). The studies were conducted in laboratory in Petri dishes; seed bed—two layers of filter paper. 50 seeds soaked in water (control) and in the solutions of the tested compounds (experimental) were placed into each dish. Wheat, corn, and rice seeds were exposed for one hour.
(§2) Analysis was conducted according to the government standards GOST 12038-84 “Crop seeds. Technical conditions for determining the germination energy and germination rate”, GOST 12044-93 “Crop seeds. Methods for determining disease contamination.”
(§3) The study of the effect of pre-sowing seed treatment with BHMPA was conducted on winter wheat (Kazan-500 variety) and spring wheat (Ekada-66 variety).
The effect of the treatment with BHMPA on phytopathological properties of spring wheat seeds was examined and the results are presented in Table II. […] The biological activity in this case was 64.4%. In other samples, contamination of the seeds also remained lower than that of the control. Treatment of seeds with BHMPA solutions reduced their overall contamination.

[2] = tested on: winter wheat (Kazan-500 variety); experiment: Winter wheat seed treatment with BHMPA: germination energy, germination rate, plant height, roots
Experimental: (§4) Control—Soaking Seeds in Water;
as §1, §2
(§5) Seed germination energy and rate were calculated in percent as an arithmetic mean of the four experimental results (germination energy on the 4th day, wheat germination on the 8th day, rice and corn germination—on the 7th day). Germination was determined based on the germinating power indicators (length of the roots and sprouts and their wet and dry mass per 100 shoots).
as §3

[3] = tested on: spring wheat (Ekada-66 variety); experiment: Spring wheat seed treatment: germination rate and plant height (laboratory, Petri dishes); details: for Germination rate % 4th day / Germination rate % 8th day / Plant height: spring wheat
Experimental: as §4, §1, §2, §5, §3

[4] = tested on: corn (Krasnodar 385 MV variety); experiment: Corn seed treatment with BHMPA salts: germination energy and germination rate; details: comparative study vs Melaphen, 1·10^−7% solution
Experimental: as §4, §1, §2, §5
(§6) The effect of pre-sowing seed treatment with the claimed BHMPA salts of biogenic metals was studied on winter wheat (Vershin variety), corn (Krasnodar 385 MV variety), and rice (Diamant variety).

[5] = tested on: winter wheat (Vershin variety); experiment: Winter wheat seed treatment with BHMPA salts: germination energy and germination rate; details: winter wheat; comparative study vs Melaphen; 1·10^−7% solution
Experimental: as §4, §1, §2, §5, §6

[6] = tested on: rice (Diamant variety); experiment: Rice seed treatment with BHMPA salts: germination energy and germination rate
Experimental: as §4, §1, §2, §5, §6

[7] = tested on: rice (Diamant variety); experiment: Rice seed treatment with BHMPA salts: germinating power; details: rice seed treatment, comparison with Melaphen (Table XXXIII), solution 1 · 10^−8%
Experimental: as §1, §5, §6
(§7) The above data describe the seed viability only at the initial stage of germination, while the germination ability at the later stage of germination is defined by the initial germinating power. The method for the determination of the germinating power comprises measuring the height of the sprouts and primary roots, as well as the biomass and the dry mass thereof per 100 seedlings. [M. A. Kartuzova. Initial Germinating Power as Method of Biological Assessment of Seed Quality. Selection and Seed Farming, #2, 1953].

[8] = tested on: corn (Krasnodar 385 MV variety); experiment: Corn seed treatment with BHMPA salts: germinating power; details: corn seeds; solution concentration 1 · 10^−7%
Experimental: as §1, §5, §6, §7

[9] = tested on: winter wheat (Vershin variety); experiment: Winter wheat seed treatment with BHMPA salts: germinating power (length and mass of roots and sprouts); details: comparative study, 1·10^−7% solution
Experimental: as §1, §5, §6, §7

[10] = tested on: winter wheat (Kazan 560 variety); experiment: Field study: winter wheat seed treatment and spraying, yield and quality of the grain; details: for Field germination, % / Grain mass from the main ear / Number of grains in an ear / Viability, % / Yield, dt/ha: winter wheat
Experimental: Field studies were conducted for the BHMPA Mg-salt. The effect of treatment winter wheat seeds (Kazan 560 variety) with BHMPA Mg-salt solutions on the yield and quality of the grain was examined. The field experiment was conducted at a branch of a fallow rotation. The seeds were sowed on Sep. 1, 2015, in an area covering 1.7 hectares of the experimental field located at the experimental base of Tatarstan Research Institute of Agriculture. For comparison, the seeds were treated with the BHMPA Mg-salt solution and the known growth-regulator Melaphen at the same concentrations, optimum for Melaphen.
The experiment was conducted for the following variants: • 1. Control (no seed treatment); • 2. Seed treatment with the BHMPA Mg-salt solution at a 1·10^−7% concentration; • 3. Seed treatment with the BHMPA Mg-salt solution at a 1·10^−7% concentration+spraying with the BHMPA Mg-salt solution at a 1·10^−8% concentration upon vegetation during spring tillering and earing phases; • 4. Seed treatment with the growth regulator Melaphen at a 1·10^−7% concentration; • 5. Seed treatment with Melaphen at a 1·10^−7% concentration and spraying with Melaphen at a 1·10^−8% concentration upon vegetation during spring tillering and earing phases.
The seeds were treated with the experimental compounds together with a seed disinfectant at a rate of 10 ml/T. The vegetating plants were treated at a rate of 5 ml/ha. Identical field operations appropriate for that zone as well as plant protection measures against weeds and disease, were applied in all cases.
Results of field experiments with BHMPA Mg-salt as the main growth-regulating component of said pre-sowing seed treatment combined with additional treatment of winter wheat plants with other claimed BHMPA salts, are presented in Table XXXV.

[11] = rice seed treatment, solution 1 · 10^−8%
[12] = rice, comparative study vs Melaphen, 1·10^−8% solution
[13] = seed treatment 1 · 10^−7% + spraying plants with the same substance 1 · 10^−8%

O=P(O)(CO)CO [BHMPA, bis-(hydroxymethyl)-phosphinic acid]
Biological efficacy ([1]; 1·10^−7% solution): 44.1%
Contamination by type: alternaria ([1]; 1·10^−7% solution): 24%
Contamination by type: bacteriosis ([1]; 1·10^−7% solution): 6%
Contamination by type: mold ([1]; 1·10^−7% solution): 3%
Overall contamination ([1]; 1·10^−7% solution): 33.0%
Biological efficacy ([1]; 1·10^−8% solution): 42.4%
Contamination by type: alternaria ([1]; 1·10^−8% solution): 26%
Contamination by type: bacteriosis ([1]; 1·10^−8% solution): 6%
Contamination by type: mold ([1]; 1·10^−8% solution): 2%
Overall contamination ([1]; 1·10^−8% solution): 34.0%
Biological efficacy ([1]; 1·10^−9% solution): 64.4%
Contamination by type: alternaria ([1]; 1·10^−9% solution): 14%
Contamination by type: bacteriosis ([1]; 1·10^−9% solution): 4%
Contamination by type: mold ([1]; 1·10^−9% solution): 3%
Overall contamination ([1]; 1·10^−9% solution): 21.5%
overall seed contamination lower than that of the control by ([1]; 1·10^−9% solution, control 59%): 38%
Overall contamination ([1]; 1·10^−9% solution, listed as bis-(hydroxymethyl)-phosphinic acid): 21.0%
Biological efficacy ([1]; 1·10^−10% solution): 61.0%
Contamination by type: alternaria ([1]; 1·10^−10% solution): 16%
Contamination by type: bacteriosis ([1]; 1·10^−10% solution): 4%
Contamination by type: mold ([1]; 1·10^−10% solution): 3%
Overall contamination ([1]; 1·10^−10% solution): 23.0%
Biological efficacy ([1]; 1·10^−11% solution): 22.0%
Contamination by type: alternaria ([1]; 1·10^−11% solution): 42%
Contamination by type: bacteriosis ([1]; 1·10^−11% solution): 2%
Contamination by type: mold ([1]; 1·10^−11% solution): 2%
Overall contamination ([1]; 1·10^−11% solution): 46.0%
Biological efficacy ([1]; 1·10^−12% solution): 44.1%
Contamination by type: alternaria ([1]; 1·10^−12% solution): 28%
Contamination by type: bacteriosis ([1]; 1·10^−12% solution): 3%
Contamination by type: mold ([1]; 1·10^−12% solution): 2%
Overall contamination ([1]; 1·10^−12% solution): 33.0%
Germination energy ([2]; 1·10^−7% solution): 82.5%
Germination rate ([2]; 1·10^−7% solution): 84.0%
Number of roots ([2]; 1·10^−7% solution): 3.3
Plant height ([2]; 1·10^−7% solution): 11.3 cm
Root length ([2]; 1·10^−7% solution): 11.7 cm
Germination energy ([2]; 1·10^−8% solution): 86.0%
Germination rate ([2]; 1·10^−8% solution): 86.0%
Number of roots ([2]; 1·10^−8% solution): 3.1
Plant height ([2]; 1·10^−8% solution): 12.5 cm
Root length ([2]; 1·10^−8% solution): 12.1 cm
Germination energy ([2]; 1·10^−9% solution): 87.4%
Germination rate ([2]; 1·10^−9% solution): 96.0%
Number of roots ([2]; 1·10^−9% solution): 3.4
Plant height ([2]; 1·10^−9% solution): 13.6 cm
Root length ([2]; 1·10^−9% solution): 12.3 cm
Germination energy ([2]; 1·10^−10% solution): 85.7%
Germination rate ([2]; 1·10^−10% solution): 90.0%
Number of roots ([2]; 1·10^−10% solution): 3.2
Plant height ([2]; 1·10^−10% solution): 11.2 cm
Root length ([2]; 1·10^−10% solution): 11.5 cm
Germination energy ([2]; 1·10^−11% solution): 83.9%
Germination rate ([2]; 1·10^−11% solution): 92.0%
Number of roots ([2]; 1·10^−11% solution): 3.3
Plant height ([2]; 1·10^−11% solution): 12.4 cm
Root length ([2]; 1·10^−11% solution): 11.3 cm
Germination energy ([2]; 1·10^−12% solution): 90.0%
Germination rate ([2]; 1·10^−12% solution): 95.0%
Number of roots ([2]; 1·10^−12% solution): 3.3
Plant height ([2]; 1·10^−12% solution): 14.1 cm
Root length ([2]; 1·10^−12% solution): 11.9 cm
Germination rate % 4th day ([3]; 1·10^−7% solution): 28.0%
Germination rate % 8th day ([3]; 1·10^−7% solution): 70.0%
Plant height ([3]; 1·10^−7% solution): 14.1 cm
Germination rate % 4th day ([3]; 1·10^−9% solution): 33.0%
Germination rate % 8th day ([3]; 1·10^−9% solution): 81.5%
Plant height ([3]; 1·10^−9% solution): 14.3 cm
Germination rate % 4th day ([3]; 1·10^−12% solution): 32.5%
Germination rate % 8th day ([3]; 1·10^−12% solution): 81.3%
Plant height ([3]; 1·10^−12% solution): 14.4 cm
growth-regulating ability compared with Melaphen ([3]; wheat, Tables I-III, 1·10^−9%, 1·10^−11% and 1·10^−12%): lesser impact than that of the prototype Melaphen

Nc1nc(N)nc(N)n1.O=P(O)(CO)CO [Melaphen, melamine salt of BHMPA, reference compound]
Germination energy [4]: 90.7%
Germination rate [4]: 97.7%
Germination energy [5]: 95.0%
Germination rate [5]: 98.3%
Germination energy, % [6, 11]: 89.5%
Germination rate, % [6, 11]: 96.3%
Germination energy [6, 12]: 89.5%
Germination rate [6, 12]: 96.3%
Length, root [7]: 7.6 cm
Length, root, + % to control [7]: 58%
Length, sprout [7]: 4.9 cm
Length, sprout, + % to control [7]: 88%
Mass, dry, root [7]: 0.29 g/100 plantlings
Mass, dry, root, + % to control [7]: 38%
Mass, dry, sprout [7]: 0.35 g/100 plantlings
Mass, dry, sprout, + % to control [7]: 40%
Mass, wet, root [7]: 1.57 g/100 plantlings
Mass, wet, root, + % to control [7]: 60%
Mass, wet, sprout [7]: 2.62 g/100 plantlings
Mass, wet, sprout, + % to control [7]: 73.5%
Length, root [8]: 8.4 cm
Length, root, + % to control [8]: 42%
Length, sprout [8]: 4.3 cm
Length, sprout, + % to control [8]: 59%
Mass, dry, root [8]: 2.42 g/100 plantlings
Mass, dry, root, + % to control [8]: 37.5%
Mass, dry, sprout [8]: 1.86 g/100 plantlings
Mass, dry, sprout, + % to control [8]: 37%
Mass, wet, root [8]: 12.02 g/100 plantlings
Mass, wet, root, + % to control [8]: 37%
Mass, wet, sprout [8]: 10.23 g/100 plantlings
Mass, wet, sprout, + % to control [8]: 44%
Germination rate % 4th day ([3]; 1·10^−7% solution): 54.0%
Germination rate % 8th day ([3]; 1·10^−7% solution): 82.0%
Plant height ([3]; 1·10^−7% solution): 14.8 cm
Germination rate % 4th day ([3]; 1·10^−9% solution): 52.0%
Germination rate % 8th day ([3]; 1·10^−9% solution): 81.0%
Plant height ([3]; 1·10^−9% solution): 14.5 cm
Length, root [9]: 10.3 cm
Length, root, + % to control [9]: 18%
Length, sprout [9]: 7.3 cm
Length, sprout, + % to control [9]: 18%
Mass, dry, root [9]: 0.72 g/100 plantlings
Mass, dry, root, + % to control [9]: 16%
Mass, dry, sprout [9]: 0.59 g/100 plantlings
Mass, dry, sprout, + % to control [9]: 16%
Mass, wet, root [9]: 6.02 g/100 plantlings
Mass, wet, root, + % to control [9]: 66%
Mass, wet, sprout [9]: 5.27 g/100 plantlings
Mass, wet, sprout, + % to control [9]: 33%
yield of winter wheat ([10]; field, seeds treated at 1·10^−7% and plants sprayed with 1·10^−8%, control 21.7 dt/ha): 29.3 dt/ha
Field germination, % ([10]; seed treatment 1 · 10^−7%): 71%
Grain mass from the main ear ([10]; seed treatment 1 · 10^−7%): 1.0 g
Number of grains in an ear ([10]; seed treatment 1 · 10^−7%): 27
Viability, % ([10]; seed treatment 1 · 10^−7%): 74%
Yield, dt/ha ([10]; seed treatment 1 · 10^−7%): 28.0 dt/ha
Field germination, % [10, 13]: 71%
Grain mass from the main ear [10, 13]: 1.2 g
Number of grains in an ear [10, 13]: 30
Viability, % [10, 13]: 62%
Yield, dt/ha [10, 13]: 29.3 dt/ha
